In PubChem BioAssay AID179 (DTP/NCI, 2004):
Active and inactive are the calls of the source.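 Rule for the calls: active = compounds giving half or more protection of infected cells from virus-caused growth loss, again on retest; inactive = the rest.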

Test system: CEM cells HIV-1 protection, formazan growth assay
Test: NCI AIDS Antiviral Assay
Details: for IC50: measured here: growth of uninfected CEM cells
Summary of the method: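 Human CEM cells, uninfected and HIV-1-infected, exposed to five drug concentrations; growth measured by soluble formazan assay and scored as percent protection from infection, with protecting compounds retested.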

Row | Structure (SMILES) | EC50 [µM] | IC50 [µM] | outcome
1 | O=C1NC(=O)C(CCSSCCC2NC(=O)NC2=O)N1 (stereo not drawn) | > 200 | > 200 | –
2 | Nc1nc2c(c(=O)[nH]1)N(C=O)C(CNc1ccc(C(=O)N[C@@H](CCC(=O)O)C(=O)O)cc1)CN2 (stereo partly drawn) | > 200 | > 200 | –
3 | COc1cc(NCC(C#N)C#N)ccc1N=Nc1ccc(Cl)cc1 | > 21.4 | > 21.4 | –
4 | CCOC(OC(C)=O)[C@@H]1C=C[C@H](C)N(c2ccc([N+](=O)[O-])cc2)O1 (stereo partly drawn) | > 40.7 | 2.24 | –
5 | CCCCCCCCCCCOc1ccc(C(=O)C(=O)c2ccc(OCCCCCCCCCCC)c(OCCCCCCCCCCC)c2)cc1OCCCCCCCCCCC | > 10.5 | > 10.5 | –
6 | C=CCC1(C(C)C(O)c2cc(OC)c(OC)c(OC)c2)CC(O)C=CC12OCCO2 (stereo not drawn) | > 200 | 9.12 | –
7 | Fc1ccc(-c2sc(-c3ccsc3)cc2Cc2ccsc2)cc1 | – | – | inactive
8 | CCOP(=O)(OCC)C(Nc1cccc(F)c1)c1ccc(N(C)C)cc1 (stereo not drawn) | > 200 | 97.7 | –
9 | CC1=C(C(=O)Nc2ccc([N+](=O)[O-])cc2)C(c2ccccc2F)C(C(=O)Nc2ccc([N+](=O)[O-])cc2)=C(C)N1 | > 13.5 | > 13.5 | –
10 | N#Cc1ccccc1CSc1ncnc2nc[nH]c12 | 12.3 | 105 | –
11 | COc1cc2c(cc1OC)C(Cl)C(c1ccc(Cl)cc1)=C2Cl (stereo not drawn) | – | – | inactive
12 | CCN(C(=O)c1ccccc1C)C(c1ccccc1)P(=O)(c1ccccc1)c1ccccc1 (stereo not drawn) | – | – | inactive
13 | FC(F)(F)c1ccccc1C=NC12CC3CC(CC(C3)C1)C2 | > 30.9 | > 30.9 | –
14 | Fc1ccc(C2SCc3nc4ccccc4n32)cc1 (stereo not drawn) | – | – | inactive
15 | Cc1cc(C)nc(NS(=O)(=O)c2ccc(NNc3c4ccccc4nc4c(C(=O)Nc5ccc(S(=O)(=O)N=C(N)N)cc5)cccc34)cc2)n1 | > 200 | 31.6 | –
16 | COC(=O)C1(O)CC(=O)CCC1c1ccc(OC)cc1 (stereo not drawn) | > 275 | > 275 | –
17 | COc1ccc(N2C(=O)/C(=C(\C)c3cc4ccccc4oc3=O)N=C2c2cc([N+](=O)[O-])ccc2Cl)cc1 | > 10 | > 10 | –
18 | NC(N)=NCC[C@H](NC(=O)OCCCCCn1ccc(=O)[nH]c1=O)C(=O)O | > 200 | > 200 | –
19 | Cc1ccc(NC(=O)CC/C(CC(=O)C(C)(C)C)=N/NC(=O)C(N)=O)cc1C | > 324 | > 324 | –
20 | CCC1([N+](=O)[O-])COP(N)(=O)OC1 (stereo not drawn) | > 427 | 31.6 | –
21 | CC1(C)CCc2cc3c(cc2O1)OC(C)(C)C1c2cc(O)c(OCc4ccccc4)cc2OC31 (stereo not drawn) | > 200 | 61.7 | –

Row | Structure (SMILES) | EC50 [µM] | IC50 [µM] | outcome
22 | CP1(=S)CCC2=C1c1ccc(O)cc1CC2 (stereo not drawn) | – | – | inactive
23 | O=C(/N=N/C(=O)N1CCOCC1)N1CCOCC1 | 75.9 | 87.1 | –
24 | COc1ccc(C(=C2C(=O)OC(=O)C2=C(C)C)c2ccc(OC)cc2)cc1 | > 200 | 95.5 | –
25 | O=c1c(O)c(-c2ccc3c(c2)OCO3)oc2c(Cl)cc(Cl)cc12 | > 100 | > 100 | –
26 | CCOP(=O)(OCC)/C(=C/n1c(=S)[nH]c2ccccc21)C(=O)OC | > 200 | > 200 | –
27 | NC(=O)C(=O)C(c1ccccc1)S(=O)(=O)Cc1ccccc1 (stereo not drawn) | > 200 | > 200 | –
28 | CC(C)c1ccc(/C(C(=O)O)=C(\O)C(=O)O)cc1 | > 200 | 107 | –
29 | O=C(c1ccccc1)n1c(Cc2ccccc2)nc2cc(C34CC5CC(CC(C5)C3)C4)ccc21 | > 100 | 16.6 | –
30 | C/C(=N\Nc1ccccc1)C(CN(C)C)C(c1ccccc1)c1c(O)c2ccccc2oc1=O (stereo not drawn) | > 27.5 | > 27.5 | –
31 | N#CCN1CCCCCc2ccccc21 | > 200 | > 200 | –
32 | Nc1nc(Cl)cc(NCC2CC(O)(CO)C2)n1 (stereo not drawn) | > 200 | > 200 | –
33 | C=C(CN)CO[Si](C)(C)C(C)(C)C | > 200 | 110 | –
34 | O=C(NC(CSSCC(NC(=O)c1cnc2ccccc2n1)C(=O)O)C(=O)O)c1cnc2ccccc2n1 (stereo not drawn) | > 200 | > 200 | –
35 | O=[N+]([O-])c1ccc(N2N=NC3C4CCC(C4)C32)cc1 (stereo not drawn) | > 95.5 | 43.7 | –
36 | CCCCCCCCCCCCOc1ccc(/C(=N\N=C(N)N)c2ccccc2)c(O)c1 | > 200 | > 200 | –
37 | CCOc1c(Cc2ccccc2)c(=O)nc2c(-c3ccccc3)cncn12 | > 200 | 42.7 | –
38 | COc1cc(C(C)=O)cc(C(=O)N(C(C)C)C(C)C)c1[Si](C)(C)C | > 100 | > 100 | –
39 | C=C(C)CC(OC(=O)C(C)(C)C)c1ccccc1 (stereo not drawn) | – | – | inactive
40 | CCSc1ccc(N=[N+]([O-])c2ccc(SCC)c(Cl)c2)cc1Cl | > 50.1 | > 50.1 | –
41 | COc1cc2c(c(OC)c1OC)C(=O)C(Br)C2NC(=O)CCCCl (stereo not drawn) | > 200 | > 200 | –
42 | c1ccc(C2OC23CCCCC3)cc1 (stereo not drawn) | > 200 | > 200 | –
